Reference: ChEMBL document CHEMBL2311351, “Synthesis and biological evaluation of triazolothienopyrimidine derivatives as novel HIV-1 replication inhibitors” (Bioorg Med Chem Lett, 2013)

Legend:
[1] = Cytotoxicity against human CEmx174 cells expressing LTR-GFP; assay type: cell-based
[2] = tested on: Human immunodeficiency virus 1; test: Antiviral activity against HIV1 LAI infected in CEMx174-LTR-GFP cells assessed as inhibition of viral replication after 5 days by fluorescence assay; assay type: functional, organism-based
[3] = Therapeutic index, ratio of CC50 for human CEmx174 cells expressing LTR-GFP to EC50 for HIV1 LAI; details: read-out: Ratio CC50/EC50
[4] = tested on: Human immunodeficiency virus 1; test: Antiviral activity against HIV1 LAI infected in CEMx174-LTR-GFP cells assessed as inhibition of viral replication at 10 uM after 5 days by fluorescence assay; assay type: functional; details: Human immunodeficiency virus 1, LAI, 120 h
[5] = Human immunodeficiency virus 1, LAI, 120 h, read-out: EC50

| SMILES | CC50 [1] [µM] | EC50 [2, 5] [µM] | selectivity ratio [3] | inhibition at 10 µM [4] [%] | EC50 [2] |
| --- | --- | --- | --- | --- | --- |
| O=S(=O)(c1cccc(Cl)c1)c1nnn2c1nc(N1CCCCC1)c1sccc12 | 75 | 0.19 | 394 |  |  |
| CC(C)CCNc1nc2c(S(=O)(=O)c3cccc(Cl)c3)nnn2c2ccsc12 |  |  |  | 58 |  |
| O=S(=O)(c1cccc(Cl)c1)c1nnn2c1nc(-c1ccc(O)cc1)c1sccc12 | 10 | 0.87 | 11 |  |  |
| O=S(=O)(c1cccc(OC(F)(F)F)c1)c1nnn2c1nc(N1CCOCC1)c1sccc12 | > 50 | 10 | > 5 |  |  |
| CC(C)Nc1nc2c(S(=O)(=O)c3cccc(Cl)c3)nnn2c2ccsc12 | > 50 | 2.2 | > 22 |  |  |
| CCOc1ccc(-c2nc3c(S(=O)(=O)c4cccc(Cl)c4)nnn3c3ccsc23)cc1 | 61 | 0.51 | 119 |  |  |
| O=S(=O)(c1cccc(Br)c1)c1nnn2c1nc(N1CCOCC1)c1sccc12 | > 50 | 3.3 | > 15 |  |  |
| O=S(=O)(c1nnn2c1nc(N1CCOCC1)c1sccc12)C1CCCCC1 | > 50 |  |  |  | Not Active |
| O=S(=O)(c1cccc(F)c1)c1nnn2c1nc(N1CCOCC1)c1sccc12 | > 50 | 0.85 | > 58 |  |  |
| O=S(=O)(c1cccc(Cl)c1)c1nnn2c1nc(-c1ccccc1Cl)c1sccc12 | > 50 | 0.67 | > 74 |  |  |
| O=S(=O)(c1cccc(Cl)c1)c1nnn2c1nc(-c1cccc(Cl)c1)c1sccc12 | 47 | 0.54 | 87 |  |  |
| O=S(=O)(c1cccc(Cl)c1)c1nnn2c1nc(-c1ccc(Cl)cc1)c1sccc12 | 46 | 0.53 | 86 |  |  |
| O=S(=O)(c1cccc(Cl)c1)c1nnn2c1nc(Nc1ccccc1)c1sccc12 | > 50 | 2.3 | > 21 |  |  |
| O=S(=O)(c1cc(Cl)cc(Cl)c1)c1nnn2c1nc(N1CCOCC1)c1sccc12 | 51 | 4 | 12.7 |  |  |
| O=S(=O)(c1cccc(Cl)c1)c1nnn2c1nc(N1CCOCC1)c1sccc12 | 74 | 0.27 | 274 |  |  |
| O=C(Nc1ccccc1Cl)c1nnn2c1nc(N1CCOCC1)c1sccc12 | > 50 | 3.5 | > 14 |  |  |
| O=S(=O)(c1cccc(Cl)c1)c1nnn2c1nc(-c1ccccc1)c1sccc12 | 61 | 0.27 | 225 |  |  |
| O=S(=O)(c1ccccc1)c1nnn2c1nc(N1CCOCC1)c1sccc12 | 39 | 16 | 2.4 |  |  |
| COc1cccc(S(=O)(=O)c2nnn3c2nc(N2CCOCC2)c2sccc23)c1 | > 50 | 1.1 | > 45 |  |  |
| Cc1ccnc2c1NC(=O)c1cccnc1N2C1CC1 [NEVIRAPINE] | > 10 | 0.15 |  |  |  |
| COc1cccc(-c2nc3c(S(=O)(=O)c4cccc(Cl)c4)nnn3c3ccsc23)c1 | 46 | 0.32 | 143 |  |  |

| SMILES | CC50 [1] [µM] | EC50 [2, 5] [µM] | selectivity ratio [3] | inhibition at 10 µM [4] [%] | EC50 [2] |
| --- | --- | --- | --- | --- | --- |
| COCCNc1nc2c(S(=O)(=O)c3cccc(Cl)c3)nnn2c2ccsc12 | > 50 | 1.9 | > 26 |  |  |
| Cc1ccc(S(=O)(=O)c2nnn3c2nc(NCCC(C)C)c2sccc23)cc1C |  | 9.84 |  |  |  |
| O=S(=O)(c1ccc(Cl)cc1)c1nnn2c1nc(N1CCOCC1)c1sccc12 | 70 | 5 | 14 |  |  |
| O=S(=O)(c1cccc(Cl)c1)c1nnn2c1nc(N1CCN(Cc3ccccc3)CC1)c1sccc12 | > 50 | 0.71 | > 70 |  |  |
| O=C(Nc1cccc(Cl)c1)c1nnn2c1nc(N1CCOCC1)c1sccc12 | > 50 | 0.37 | > 135 |  |  |
| COc1ccc(-c2nc3c(S(=O)(=O)c4cccc(Cl)c4)nnn3c3ccsc23)cc1 | 60 | 0.06 | 1000 |  |  |
| O=S(=O)(c1cccc(Cl)c1)c1nnn2c1nc(N1CCCCCC1)c1sccc12 | 35 | 4 | 8.7 |  |  |
| COc1ccccc1-c1nc2c(S(=O)(=O)c3cccc(Cl)c3)nnn2c2ccsc12 | 45 | 1.3 | 34 |  |  |
| CCS(=O)(=O)c1nnn2c1nc(N1CCOCC1)c1sccc12 | > 50 |  |  |  | Not Active |
| CN(c1ccccc1)c1nc2c(S(=O)(=O)c3cccc(Cl)c3)nnn2c2ccsc12 | > 50 | 2.1 | > 23 |  |  |
| O=C(Nc1ccc(Cl)cc1)c1nnn2c1nc(N1CCOCC1)c1sccc12 | 57 | 16 | 3.5 |  |  |
| O=C(c1cccc(Cl)c1)c1nnn2c1nc(N1CCOCC1)c1sccc12 | > 50 | 0.93 | > 53 |  |  |
| Nc1nc2c(S(=O)(=O)c3cccc(Cl)c3)nnn2c2ccsc12 | > 50 | 1.6 | > 31 |  |  |
| CN(C)c1ccc(-c2nc3c(S(=O)(=O)c4cccc(Cl)c4)nnn3c3ccsc23)cc1 | > 50 | 3.1 | > 16 |  |  |
| CN1CCN(c2nc3c(S(=O)(=O)c4cccc(Cl)c4)nnn3c3ccsc23)CC1 | > 50 | 2.1 | > 23 |  |  |
| Cc1ccc(-c2nc3c(S(=O)(=O)c4cccc(Cl)c4)nnn3c3ccsc23)cc1 | 61 | 0.84 | 72 |  |  |
| O=C(O)c1nnn2c1nc(N1CCOCC1)c1sccc12 | 42 | 4.8 | 8.7 |  |  |
| O=S(=O)(c1cccc(Cl)c1)c1nnn2c1nc(NC1CCCCC1)c1sccc12 | > 50 | 6.7 | > 7.4 |  |  |
| CCOC(=O)c1nnn2c1nc(N1CCOCC1)c1sccc12 | > 50 | 0.8 | > 62 |  |  |
| O=S(=O)(c1ccccc1Cl)c1nnn2c1nc(N1CCOCC1)c1sccc12 | 56 | 1.1 | 50 |  |  |
